The results in this text go back to patent US9422265B2, “Process for the preparation of 3-(3-chloro-1H-pyrazol-1-yl)pyridine” (Dow AgroSciences LLC, priority 2014, dated 2016).

Experiment [1] has as its system Green Peach Aphid (Myzus persicae) (MYZUPE). Description: Bioassay on Green Peach Aphid (GPA), cabbage seedling foliar spray. Type of experiment: in vivo. The conditions noted are these: 72 h, 200 ppm spray on cabbage seedlings, graded after three days, live aphids, Abbott's correction, read-out: MYZUPE rating (% Control of Mortality). The protocol:
Example A Bioassays on Green Peach Aphid (“GPA”) (Myzus persicae) (MYZUPE.)
Several molecules disclosed herein were tested against GPA using procedures described below.
Cabbage seedling grown in 3-in pots, with 2-3 small (3-5 cm) true leaves, were used as test substrate. The seedlings were infested with […] (wingless adult and nymph stages) one day prior to chemical application. Four posts with individual seedlings were used for each treatment. Test compounds (2 mg) were dissolved in 2 mL of acetone/methanol (1:1) solvent, forming stock solutions of 1000 ppm test compound. The stock solutions were diluted 5× with 0.025% Tween 20 in water to obtain the solution at 200 ppm test compound. A hand-held aspirator-type sprayer was used for spraying a solution to both sides of the cabbage leaves until runoff. Reference plants (solvent check) were sprayed with the diluent only containing 20% by volume acetone/methanol (1:1) solvent. Treated plants were held in a holding room for three days at approximately 25° C. and ambient relative humidity (RH) prior to grading. Evaluation was conducted by counting the number of live aphids per plant under a microscope. Percent Control was measured by using Abbott's correction formula (W. S. Abbott, “A Method of Computing the Effectiveness of an Insecticide” J. Econ. Entomol 18 (1925), pp. 265-267) as follows. […]

The subject of experiment [2] is Sweetpotato Whitefly Crawler (Bemisia tabaci) (BEMITA). Description: Bioassay on Sweetpotato Whitefly Crawler, cotton plant foliar spray. Type of experiment: in vivo. The following applies: 200 ppm spray on cotton plants, graded after 8-9 days, live nymphs, Abbott's correction, read-out: BEMITA rating (% Control of Mortality). An excerpt: Example B Bioassays on Sweetpotato Whitefly Crawler (Bemisia tabaci) (BEMITA.)
Cotton plants grown in 3-inch pots, with 1 small (3-5 cm) true leaf, were used at test substrate. The plants were placed in a room with whitefly adults. Adults were allowed to deposit eggs for 2-3 days. After a 2-3 day egg-laying period, plants were taken from the adult whitefly room. Adults were blown off leaves using a hand-held Devilbliss sprayer (23 psi). Plants with egg infestation (100-300 eggs per plant) were placed in a holding room for 5-6 days at 82° F. and 50% RH for egg hatch and crawler stage to develop. Four cotton plants were used for each treatment. Compounds (2 mg) were dissolved in 1 mL of acetone solvent, forming stock solutions of 2000 ppm. The stock solutions were diluted 10× with 0.025% Tween 20 in water to obtain a test solution at 200 ppm. A hand-held Devilbliss sprayer was used for spraying a solution to both sides of cotton leaf until runoff. Reference plants (solvent check) were sprayed with the diluent only. Treated plants were held in a holding room for 8-9 days at approximately 82° F. and 50% RH prior to grading. Evaluation was conducted by counting the number of live nymphs per plant under a microscope.

The mortality is the share of the test organisms that died.

As to `CCN(C(=O)CCSCCC(F)(F)F)c1cn(-c2cccnc2)nc1Cl` [Compound 2-11, N-(3-chloro-1-(pyridin-3-yl)-1H-pyrazol-4-yl)-N-ethyl-3-((3,3,3-trifluoropropyl)thio)propanamide], the mortality at 200 ppm in experiment [1] and in experiment [2] was 80 to 100% in each case.
As to `CCN(C(=O)CC[S+]([O-])CCC(F)(F)F)c1cn(-c2cccnc2)nc1Cl` (stereo not shown) [Compound 2-12, N-(3-chloro-1-(pyridin-3-yl)-1H-pyrazol-4-yl)-N-ethyl-3-((3,3,3-trifluoropropyl)sulfoxo)propanamide], the mortality at 200 ppm in experiment [1] and in experiment [2] was 80 to 100% each time.
